Experimental data taken from US20220233652A1, “Pharmaceutical Compositions Comprising Integration-Promoting Peptides” (priority 2018, published 2022).

Assays:
[1] = tested on: 1975 human lung cancer cells; experiment: Lung cancer tumor mice model; format: in vivo, athymic nude mice; settings: for Inhibition of growth of lung cancer tumors relative to control: day 11
Protocol: Two models of cancer were generated: lung cancer and pancreatic cancer. About 5×10^6 of 1975 human lung cancer cells per 0.1 ml PBS per mouse were injected to male 7 weeks old athymic nude mice (n=30). The cells were injected, subcutaneously at one site on the back of the mice. About 5×10^6 PANC-1 human pancreatic cancer cells per 0.1 ml PBS per mouse were injected to male 7 weeks old athymic nude mice (n=22). The cells were injected, subcutaneously at one site on the back of the mice. When tumors were palpable (˜0.3-0.5 cm^3), the mice were randomly divided into three groups (Table 27) and the viruses and/or peptides were injected, twice a week for two weeks.
The first day of the study was defined as ‘Day 1’. The animals were administrated IP with either Vehicle (PBS or Formulation), lentiviral particles and SC with test items according to Table 27 on days 1, 4, 8 and 11. Body weight and tumor volume were checked on days 3, 7, 11, 14 and 17 (the latter was measured with a caliper). At the end of the experiment, on day 17, the mice were anesthetized and then sacrificed, and the tumors were removed, as well as lung, spleen, kidney and liver.

CD4 T-cell = experiment: Phase I/IIa clinical trial: CD4 T-cell count; format: in vivo, human; settings: patients treated with INS (part II with lopinavir plus ritonavir)
Protocol: Reduced viral protein p24 antigen. • 3. Functional Assessment of HIV Infection (FAHI) questionnaire.
In addition, the preliminary results indicated treatment efficacy as measured by decrease in viral load in HIV patients. Most patients achieved significant reduction in viral load for up to 90% from baseline during the first 5 weeks of SC administration, meeting its exploratory endpoint. […] In this study, patients were treated for 5 weeks with a combined treatment of the subcutaneous composition as previous (0.2-0.4 mg/kg twice a week) and commercially available lopinavir 800 mg plus ritonavir 200 mg daily. The control group received only lopinavir 800 mg plus ritonavir 200 mg for additional 5 weeks.

[2] = Phase I/IIa clinical trial: safety and tolerability; format: in vivo, human; settings: HIV patients, 5 weeks SC administration
Text: Patients are monitored for adverse events (AE) of the INS peptide such as rash, acute allergic reaction, bronchospasm, respiratory distress, and acute vascular leak syndrome. If a severe administration related reaction occurs, the drug administration is stopped. Blood chemistry, hematology, coagulation, and urinalysis are repeated on Days 1, 4, 8, 11, 15, 18, 22, 25 at the clinic visits.
The primary safety endpoint is the frequency, severity, and duration of side effects. Number of participants with treatment-related adverse events as assessed by CTCAE v4.03, are evaluated though study completion. Main adverse events evaluation is based on DADS Toxicity criteria (Division of AIDS DADS Table for Grading the Severity of Adult and Paediatric Adverse Events, Corrected Version 2.1): • Viral load • Lymphopenia/Neutropenia • Immuno-reaction over reaction/cytokine storm • Infection surrounding the administration site • Liver function (lab tests) • Kidney function (lab tests)
Incidence of withdrawal (drop-out rate) due to side effects is evaluated throughout the study.

WTAVQMAVFIHNFKRK [INS]
Inhibition of growth of lung cancer tumors relative to control ([1]; lentiviral particles IP + INS peptide 1.25 mg/kg SC on days 1, 4, 8, 11): 50% | Inhibition of growth of lung cancer tumors relative to control ([1]; lentiviral particles IP + INS peptide 2.5 mg/kg SC on days 1, 4, 8, 11): 50% | Comparison of doses at the end of the experiment ([1]; day 17, INS 1.25 mg/kg versus 2.5 mg/kg, with lentiviral particles): better results than with INS 2.5 mg/kg | Increase of CD4 T-cell count relative to baseline (CD4 T-cell): up to 97% | Side effects and harm to immune system (monitored by CD4 cells) [2]: no side effects and no harm to immune system
